{
  "source": "paper PMC6408865",
  "about": "(Pharmacology Research & Perspectives, 2019)",
  "key": {"[1]": {"experiment": "Population PK model of AZD7687 plasma concentrations in SAD and MAD studies (2-compartment, first order absorption)", "assay_type": "in vivo", "details": "human", "procedure": "Full details of the study protocols have previously been reported by Denison et al14 for Single Ascending Dose study (SAD) and Denison et al16 for the Multiple Ascending Dose Study (MAD). In brief, in the SAD, 80 healthy male subjects were enrolled.\n(§1) Full description of all the PK models is provided in supplementary section S1.\nModels were implemented using nonlinear mixed effects modeling in Phoenix NLME, version 1.3 (Certara). The analysis was conducted using the first order conditional estimation (FOCE‐ELS) during the sequential and simultaneous analysis (the expectation maximization method (QRPEM) was used for the simultaneous fitting of the human data due to speed and ability to converge).\nInter-individual variability was estimated on CL, V1, V2 and ka parameters according to a log-normal distribution of individual parameters. […] Residual error was characterized with a proportional plus additive error model."}, "plasma TAG [2]": {"system": "plasma TAG", "experiment": "PK/PD model of plasma TAG after Oral Lipid Tolerance Test (corn oil)", "details": "rat OLTT, free plasma concentration, read-out: IC50 (free in vivo IC50, inhibition of exogenous TAG contribution to plasma)", "procedure": "(§2) Full description of the OLTT in the rat has been published previously.17 In brief, 53 male Han‐Wistar rats (∼230 g), previously maintained on a chow diet, were fasted for 14 hours. […] Six remaining animals were kept untreated and served as naive controls.\nBiological plausibility combined with stable parameter estimation was used in the evaluation of different potential PK/PD models to help select the optimal one. The key components of the final PK/PD TAG model are described in Figure 1. The introduction of exogenous TAG into the system is represented by a first order process from the lipid depot compartment (assumed to be the gut) to the central compartment (plasma). A lag time to accommodate the time delay from ingestion of the fatty meal to the resulting increase in plasma TAG was needed. In addition, there is an endogenous production and removal of TAG from plasma described with a turnover model controlled by the turnover rate (kin) (production) and the fractional turnover rate (kout) (loss). Turnover model was reparameterized using the relationship of kin to baseline plasma TAG (R0) (R0 = kin/kout) to increase numerical stability.\nKaTAG is the absorption rate of exogenous TAG into plasma, VTAG is the volume of distribution of exogenous TAG, and TlagTAG is the time delay for the absorption of TAG from the SMM. […]"}, "[3]": {"details": "rat plasma; cited from earlier work"}, "[4]": {"experiment": "PK model of AZD7687 plasma concentrations during mouse OLTT (1-compartment)", "assay_type": "in vivo", "procedure": "Oral Lipid Tolerance Test in the mouse was carried out in a similar way to rats.\nas §1\nAs PK data was only collected for 4h post dose, the ability to fit complex PK models was limited. As with the rat, the aim of the PK fitting was to describe the kinetics of the compound during the OLTT instead of a full characterization of the PK properties of the compound. […] Inter-individual variability was estimated on CL and V parameters according to a log-normal distribution of individual parameters. Correlation between Cl and V parameters was allowed. […] Residual error was characterized with a proportional error model."}, "[5]": {"system": "HuTu 80 (Human gastrointestinal tumor cell line)", "parameters": "method as in Barlind_2012", "details": "HuTu 80 cells; ref Barlind_2012; read-out: In vitro potency (IC50) in HuTu 80; cited from earlier work"}, "plasma TAG [6]": {"system": "plasma TAG", "experiment": "PK/PD model of plasma TAG after Oral Lipid Tolerance Test (Intralipos 20%)"}, "plasma TAG [7]": {"system": "plasma TAG", "experiment": "PK/PD model of plasma TAG after Oral Lipid Tolerance Test (standardized mixed meal)"}, "[8]": {"system": "DGAT1 (in liver microsomes)", "parameters": "method as in Barlind_2012", "details": "human liver microsomes; ref Barlind_2012; read-out: In vitro potency (IC50) against DGAT1; cited from earlier work"}, "[9]": {"parameters": "method as in PMID 23116186", "details": "human plasma; cited from earlier work"}, "[10]": {"system": "DGAT1 (in liver microsomes)", "parameters": "method as in Barlind_2012", "details": "rat liver microsomes; ref Barlind_2012; read-out: In vitro potency (IC50) against DGAT1; cited from earlier work"}, "[11]": {"details": "mouse plasma; cited from earlier work"}, "plasma TAG [12]": {"system": "plasma TAG", "parameters": "method as in PMID 23116186", "details": "cited from earlier work"}, "plasma TAG [13]": {"system": "plasma TAG", "details": "human SAD OLTT study, iAUC analysis of plasma TAG vs plasma concentration at start of meal test; read-out: in vivo IC50, previously published; cited from earlier work"}, "[14]": {"details": "human; cited from earlier work"}, "[15]": {"system": "DGAT1 (in liver microsomes)", "parameters": "method as in Barlind_2012", "details": "mouse liver microsomes; ref Barlind_2012; read-out: In vitro potency (IC50) against DGAT1; cited from earlier work"}, "[16]": {"experiment": "PK model of AZD7687 plasma concentrations during rat OLTT (1-compartment)", "assay_type": "in vivo", "procedure": "as §2, §1\nAs PK data was only collected for 11h post dose, the ability to fit complex PK models was limited. The aim of the PK fitting was to describe the kinetics of the compound during the OLTT instead of a full characterization of the PK properties of the compound. […] Inter-individual variability was estimated on CL and V parameters according to a log-normal distribution of individual parameters. […] Residual error was characterized with a proportional plus additive error model."}, "[17]": {"details": "using free concentrations in plasma"}},
  "note": "Where two headings read alike, the source gives them in different places.",
  "data": [
    {"molecule": "Cc1nc(C)c(-c2ccc(C3CCC(CC(=O)O)CC3)cc2)nc1C(N)=O", "note": "(stereo not drawn) [AZD7687]", "values": [
      {"measurement": "Cl (tvCL, apparent clearance)", "setting": "[1]; [17]", "result": 28.1, "unit": "L/h"},
      {"measurement": "V2 (tvV2, peripheral volume of distribution)", "setting": "[1]; [17]", "result": 136.8, "unit": "L"},
      {"measurement": "Tmax", "setting": "[1]; male, plasma, post dose, oral, read-out: T max in plasma", "result": "≤ 1", "unit": "h"},
      {"measurement": "Vd", "setting": "[1]; male, oral, using free concentrations in plasma, read-out: V (tvV1, central volume of distribution)", "result": 320, "unit": "L"},
      {"measurement": "IC50", "setting": "plasma TAG [2]", "result": 162, "unit": "nM"},
      {"measurement": "free fraction (fu)", "setting": "[3]", "result": 0.03},
      {"measurement": "V", "setting": "[4]; Table 1, free concentrations", "result": 13.14, "unit": "L"},
      {"measurement": "CL/F", "setting": "[4]; male, ICR, oral, supplement, free concentrations in plasma, read-out: tvCl (apparent clearance) (converted)", "result": 36.2, "unit": "mL/min/kg"},
      {"measurement": "Vd", "setting": "[4]; male, ICR, oral, supplement, free concentrations in plasma, read-out: tvV (apparent volume of distribution)", "result": 13.1, "unit": "L/kg"},
      {"measurement": "clearance", "setting": "[4]; male, ICR, plasma, oral, Table 1, free concentrations", "result": 36.2, "unit": "mL/min"},
      {"measurement": "IC50", "setting": "[5]", "result": 10, "unit": "nM"},
      {"measurement": "IC50", "setting": "plasma TAG [6]; Mus musculus, po, read-out: IC50 (free in vivo IC50, inhibition of exogenous TAG contribution to plasma), mouse OLTT, free plasma concentration", "result": 81, "unit": "nM"},
      {"measurement": "IC50", "setting": "plasma TAG [6]; read-out: IC50 (free in vivo IC50, inhibition of exogenous TAG contribution to plasma), mouse OLTT, free plasma concentration", "result": 80, "unit": "nM"},
      {"measurement": "IC50", "setting": "plasma TAG [7]; Homo sapiens, po, read-out: IC50 (free in vivo IC50, inhibition of exogenous TAG contribution to plasma), human OLTT, free plasma concentration", "result": 8, "unit": "nM"},
      {"measurement": "IC50", "setting": "plasma TAG [7]; read-out: IC50 (free in vivo IC50, inhibition of exogenous TAG contribution to plasma), human OLTT, free plasma concentration", "result": 7.8, "unit": "nM"},
      {"measurement": "IC50", "setting": "[8]", "result": 70, "unit": "nM"},
      {"measurement": "free fraction (fu)", "setting": "[9]", "result": 0.055},
      {"measurement": "IC50", "setting": "[10]", "result": 150, "unit": "nM"},
      {"measurement": "free fraction (fu)", "setting": "[11]", "result": 0.1},
      {"measurement": "IC50", "setting": "plasma TAG [12]; rat OLTT study, single time point data for plasma TAG and PK, read-out: in vivo IC50, previously published", "result": 42, "unit": "nM"},
      {"measurement": "effect on TAG excursion after OLTT", "setting": "plasma TAG [12]; rats, exposure dependant", "result": "reduces the TAG excursion"},
      {"measurement": "IC50", "setting": "plasma TAG [13]", "result": 20, "unit": "nM"},
      {"measurement": "side effects leading to stop of clinical development", "setting": "[14]", "result": "intolerable side effects"},
      {"measurement": "IC50", "setting": "[15]", "result": 100, "unit": "nM"},
      {"measurement": "IIV V", "setting": "[16]; in vivo", "result": 11.7, "unit": "%"},
      {"measurement": "CL/F", "setting": "[16]; male, Han-Wistar, oral, supplement, free concentrations in plasma, read-out: tvCl (apparent clearance) (converted)", "result": 12.2, "unit": "mL/min/kg"},
      {"measurement": "clearance", "setting": "[16]; male, Han-Wistar, plasma, oral, Table 1, free concentrations", "result": 12.2, "unit": "mL/min"}
    ]}
  ]
}
